Test results published in ChEMBL document CHEMBL1201862, “PubChem BioAssay data set” (2004).
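A five-concentration, 48-hour dose response in 96-well plates underlies each endpoint, interpolated linearly between surrounding concentrations. Here, GI50 denotes the concentration required for 50% inhibition of growth.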 The source made the active and inactive calls. Cut-off read from the data, not from the text of the source: active = GI50 up to about 1.1 µM and inactive = higher.

Experiments:
Test in all cases: NCI-60 cell line screen, 48 h
HL-60 = system: HL-60
LOX IMVI = system: LOX IMVI
SR = system: SR
NCI-H23 = system: NCI-H23
Malme-3M = system: Malme-3M
T47D = system: T47D
HOP-62 = system: HOP-62
MOLT-4 = system: MOLT-4
NCI-H460 = system: NCI-H460
CCRF-CEM = system: CCRF-CEM
OVCAR-3 = system: OVCAR-3
NCI/ADR-RES = system: NCI/ADR-RES
HCC 2998 = system: HCC 2998
RPMI-8226 = system: RPMI-8226
SF-268 = system: SF-268
M14 = system: M14
SNB-19 = system: SNB-19
HT-29 = system: HT-29
SK-MEL-28 = system: SK-MEL-28
SF-539 = system: SF-539
SW-620 = system: SW-620
786-0 = system: 786-0
ACHN = system: ACHN
SK-MEL-5 = system: SK-MEL-5
HCT-15 = system: HCT-15
HCT-116 = system: HCT-116
MDA-MB-231 = system: MDA-MB-231
UO-31 = system: UO-31
MCF7 = system: MCF7
MDA-N = system: MDA-N
SNB-75 = system: SNB-75
EKVX = system: EKVX
A498 = system: A498
HOP-92 = system: HOP-92
OVCAR-5 = system: OVCAR-5
U-251 = system: U-251
SK-OV-3 = system: SK-OV-3
CAKI-1 = system: CAKI-1
Hs-578T = system: Hs-578T
KM12 = system: KM12
COLO 205 = system: COLO 205
A549 = system: A549
OVCAR-4 = system: OVCAR-4
UACC-257 = system: UACC-257
SF-295 = system: SF-295
TK-10 = system: TK-10
PC-3 = system: PC-3
SN12C = system: SN12C
IGROV-1 = system: IGROV-1
K562 = system: K562
DU-145 = system: DU-145
SK-MEL-2 = system: SK-MEL-2
OVCAR-8 = system: OVCAR-8
UACC-62 = system: UACC-62
MDA-MB-435 = system: MDA-MB-435
RXF 393 = system: RXF 393
NCI-H226 = system: NCI-H226

For c1ccc2c(c1)c1c(n2CCOCCN2CCOCC2)CCCC1, the GI50 (HL-60) was 20 µM (inactive), the GI50 (LOX IMVI) was 20.2 µM (inactive) and the GI50 (SR) was 30.3 µM (inactive). For the same molecule, the GI50 (NCI-H23) was 32.3 µM (inactive), the GI50 (Malme-3M) was 13.8 µM (inactive) and the GI50 (T47D) was 32.2 µM (inactive). The GI50 (HOP-62) was 26.3 µM (inactive), the GI50 (MOLT-4) was 25 µM (inactive) and the GI50 (NCI-H460) was 27.5 µM (inactive). The GI50 (CCRF-CEM) was 21.8 µM (inactive), the GI50 (OVCAR-3) was 26.9 µM (inactive) and the GI50 (NCI/ADR-RES) was 16.3 µM (inactive). For the same molecule, the GI50 (HCC 2998) was > 10 µM (inactive), the GI50 (RPMI-8226) was 21 µM (inactive) and the GI50 (SF-268) was 20.7 µM (inactive). The GI50 (M14) was 12.4 µM (inactive), the GI50 (SNB-19) was > 100 µM (inactive) and the GI50 (HT-29) was 15.6 µM (inactive). For the same molecule, the GI50 (SK-MEL-28) was 19.5 µM (inactive), the GI50 (SF-539) was 86.1 µM (inactive) and the GI50 (SW-620) was 34.1 µM (inactive). The GI50 (786-0) was > 10 µM (inactive), the GI50 (ACHN) was 30.8 µM (inactive) and the GI50 (SK-MEL-5) was 18.2 µM (inactive). For the same molecule, the GI50 (HCT-15) was 36.5 µM, the GI50 (HCT-116) was 29.8 µM (inactive) and the GI50 (MDA-MB-231) was 17.3 µM (inactive). For the same molecule, the GI50 (UO-31) was 27.1 µM (inactive), the GI50 (MCF7) was 38.8 µM (inactive) and the GI50 (MDA-N) was 37.8 µM (inactive). For the same molecule, the GI50 (SNB-75) was 2.36 µM (inactive), the GI50 (EKVX) was 30.9 µM (inactive) and the GI50 (A498) was 34.1 µM (inactive). For the same molecule, the GI50 (HOP-92) was 29.2 µM (inactive), the GI50 (OVCAR-5) was 25.1 µM (inactive) and the GI50 (U-251) was 23.6 µM (inactive). For the same molecule, the GI50 (SK-OV-3) was 55.2 µM (inactive), the GI50 (CAKI-1) was 15.2 µM (inactive) and the GI50 (Hs-578T) was 57 µM (inactive). The GI50 (KM12) was 31.8 µM (inactive), the GI50 (COLO 205) was > 10 µM (inactive) and the GI50 (A549) was 45.2 µM (inactive). The GI50 (OVCAR-4) was 14.3 µM (inactive), the GI50 (UACC-257) was 21.1 µM (inactive) and the GI50 (SF-295) was 23.9 µM (inactive). For the same molecule, the GI50 (TK-10) was 18.4 µM (inactive), the GI50 (PC-3) was 24.7 µM (inactive) and the GI50 (SN12C) was > 10 µM (inactive). The GI50 (IGROV-1) was 36 µM (inactive), the GI50 (K562) was 33.6 µM (inactive) and the GI50 (DU-145) was > 100 µM (inactive). The GI50 (SK-MEL-2) was 24.2 µM (inactive) and the GI50 (OVCAR-8) was 36.7 µM (inactive).

With Nc1ncnc2c1ncn2C1C=CC(COS(N)(=O)=O)C1 (centres undefined) the GI50 (HL-60) was 4.19 µM (inactive), the GI50 (LOX IMVI) was 5.53 µM (inactive) and the GI50 (SR) was 8.55 µM (inactive). The GI50 (NCI-H23) was 9.77 µM (inactive), the GI50 (Malme-3M) was > 100 µM (inactive) and the GI50 (T47D) was 8.81 µM (inactive). The GI50 (HOP-62) was 16.8 µM (inactive), the GI50 (MOLT-4) was 7.85 µM (inactive) and the GI50 (NCI-H460) was 12.2 µM (inactive). For the same molecule, the GI50 (CCRF-CEM) was 18.4 µM (inactive), the GI50 (OVCAR-3) was 31 µM (inactive) and the GI50 (NCI/ADR-RES) was 66.2 µM (inactive). The GI50 (UACC-62) was 20.6 µM (inactive), the GI50 (HCC 2998) was 35.7 µM (inactive) and the GI50 (RPMI-8226) was 2.93 µM (inactive). For the same molecule, the GI50 (SF-268) was 33.7 µM (inactive), the GI50 (M14) was 22.2 µM (inactive) and the GI50 (SNB-19) was 9.23 µM (inactive). The GI50 (HT-29) was 14.9 µM (inactive), the GI50 (SK-MEL-28) was 20.5 µM (inactive) and the GI50 (SF-539) was 0.676 µM (active). The GI50 (SW-620) was 12.9 µM (inactive), the GI50 (786-0) was 18.5 µM (inactive) and the GI50 (MDA-MB-435) was 35.2 µM (inactive). For the same molecule, the GI50 (ACHN) was 23.9 µM (inactive), the GI50 (SK-MEL-5) was 30.4 µM (inactive) and the GI50 (HCT-15) was 9.27 µM. The GI50 (HCT-116) was 9.38 µM (inactive), the GI50 (MDA-MB-231) was 20.2 µM (inactive) and the GI50 (UO-31) was 79.1 µM (inactive). For the same molecule, the GI50 (MCF7) was 6.43 µM (inactive), the GI50 (MDA-N) was 22.5 µM (inactive) and the GI50 (SNB-75) was 21.9 µM (inactive). For the same molecule, the GI50 (EKVX) was > 100 µM (inactive), the GI50 (HOP-92) was 15.7 µM (inactive) and the GI50 (OVCAR-5) was 64.1 µM (inactive). For the same molecule, the GI50 (U-251) was 5.26 µM (inactive), the GI50 (SK-OV-3) was 52.7 µM (inactive) and the GI50 (CAKI-1) was 3.28 µM (inactive). The GI50 (RXF 393) was 12.4 µM (inactive), the GI50 (NCI-H226) was 55.1 µM (inactive) and the GI50 (Hs-578T) was 15.6 µM (inactive). The GI50 (KM12) was 19.2 µM (inactive), the GI50 (COLO 205) was 16.9 µM (inactive) and the GI50 (A549) was 36.2 µM (inactive). The GI50 (OVCAR-4) was 34.3 µM (inactive), the GI50 (UACC-257) was 63.5 µM (inactive) and the GI50 (SF-295) was 40.9 µM (inactive). The GI50 (TK-10) was > 100 µM (inactive), the GI50 (PC-3) was 12 µM (inactive) and the GI50 (SN12C) was 8.2 µM (inactive). The GI50 (IGROV-1) was 34.2 µM (inactive), the GI50 (K562) was 16.2 µM (inactive) and the GI50 (DU-145) was 66.8 µM (inactive). The GI50 (SK-MEL-2) was 39.3 µM (inactive) and the GI50 (OVCAR-8) was 13.1 µM (inactive).
